Laboratory results as given in US5232684A, “Labelled resiniferatoxin, compositions thereof, and methods for using the same” (priority 1990, dated 1993).

Tests used:
[1] = molecular target: T1, capsaicin receptor (dorsal horn from pig spinal cord) (Sus scrofa, UniProt F1RLJ0); experiment: Binding to membrane preparations from dissected dorsal horn of pig spinal cord
T1 construct: membrane preparations from dissected dorsal horn from pig spinal cord; from tissue; host or cells: dissected dorsal horn of pig spinal cord
Method: The binding assays are carried out in a volume of 250 ul, containing assay buffer (same as the disrupting buffer but omitting DTT and EGTA and including 0.75 mM CaCl2), 26-30 ug of membrane protein and 0.25 mg/ml bovine serum albumin. […] Tubes are kept on ice while the additions are made. The assay mixture is incubated for 10 min at 37° C.; it is then cooled on ice. 150 ul of the mixture is pipetted onto Whatman GF/C or GF/F glass fiber filters presoaked with 10 mg/ml bovine serum albumin in 20 mM Tris-Cl (pH 7.4) and filtered immediately. An aliquot of 50 ul of the mixture is removed to determine total radioactivity. The filters are washed with 100 ml of ice-cold 20 mM Tris-Cl, pH 7 4, containing 0.1 mg/ml bovine serum albumin, and the bound radioactivity is determined by scintillation counting. Non-specific binding is determined in the presence of 100-1000 nM non-radioactive RTX. Under these conditions approximately 30% of the non-specific binding is due to sticking of [^3 H]RTX to the filters. The remainder presumably reflects partitioning into the lipid phase of the membranes, as had been observed previously for typical phorbol esters (Driedger, P.E. and Blumberg, P.M., Specific binding of phorbol ester tumor promoters, Proc. Natl. Acad. Sci. U.S.A., 77 (1980) 567-571). […]
Alternatively, binding can be measured to membrane preparations from dissected dorsal horn from pig spinal cord. […]

[2] = system: capsaicin receptor (cow DRG); experiment: [^3H]RTX binding to cow DRG membranes; details: DRG from cows
[3] = molecular target: T2, capsaicin receptor (chicken DRG) (Gallus gallus, UniProt Q8QFN9); experiment: [^3H]RTX binding to chicken DRG membranes
T2 construct: homotetramer
T2 sequence (Q8QFN9 1-843): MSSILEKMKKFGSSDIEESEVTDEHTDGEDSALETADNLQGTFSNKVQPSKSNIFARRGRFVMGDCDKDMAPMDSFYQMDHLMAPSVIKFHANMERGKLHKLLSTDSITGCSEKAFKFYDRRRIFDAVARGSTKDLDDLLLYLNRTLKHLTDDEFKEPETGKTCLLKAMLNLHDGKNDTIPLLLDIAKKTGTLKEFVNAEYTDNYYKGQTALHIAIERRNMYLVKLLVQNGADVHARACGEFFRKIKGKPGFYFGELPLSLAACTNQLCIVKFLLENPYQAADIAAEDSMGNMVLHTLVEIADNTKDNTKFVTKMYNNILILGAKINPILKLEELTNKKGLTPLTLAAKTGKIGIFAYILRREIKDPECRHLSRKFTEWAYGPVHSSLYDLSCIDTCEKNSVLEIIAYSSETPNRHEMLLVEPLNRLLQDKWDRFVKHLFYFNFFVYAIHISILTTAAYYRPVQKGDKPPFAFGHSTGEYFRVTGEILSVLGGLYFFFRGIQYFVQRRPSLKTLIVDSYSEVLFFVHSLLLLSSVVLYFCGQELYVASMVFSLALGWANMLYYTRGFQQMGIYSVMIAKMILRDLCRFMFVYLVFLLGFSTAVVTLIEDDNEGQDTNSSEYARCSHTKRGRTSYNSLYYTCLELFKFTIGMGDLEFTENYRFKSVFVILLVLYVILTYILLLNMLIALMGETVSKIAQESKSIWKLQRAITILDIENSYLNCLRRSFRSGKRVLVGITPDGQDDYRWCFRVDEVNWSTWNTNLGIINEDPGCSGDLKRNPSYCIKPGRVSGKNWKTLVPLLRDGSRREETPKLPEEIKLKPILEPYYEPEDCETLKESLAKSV

CD-1 mice = experiment: Induction of hypothermia in CD-1 mice; assay type: in vivo, mouse; details: 10^-5 g/kg s.c.
Excerpt: (§1) [^3 H]RTX (37 Ci/mmol) is synthesized by esterification of resiniferonol 9,13,14-orthophenylacetate (Chemicals for Cancer Research, Inc., Chaska, MN) at the C20 position with [^3 H]homovanillic acid (Chemical Synthesis and Analysis Laboratory, NCI-FCRF, Frederick, MD). The labelled compound is purified on HPLC and cochromatographed with authentic RTX (Chemicals for Cancer Research, Inc., Chaska, MN). The biological activity of [^3 H]RTX is confirmed in 2 assays: induction of hypothermia in CD-1 mice (10^-5 g/kg s.c.) and induction of ear edema in Sprague-Dawley rats (2×10^-7 g/ear).

Sprague-Dawley rats = experiment: Induction of ear edema in Sprague-Dawley rats; assay type: in vivo, rat; details: 2×10^-7 g/ear
Excerpt: as §1

T1 sequence (F1RLJ0 1-841): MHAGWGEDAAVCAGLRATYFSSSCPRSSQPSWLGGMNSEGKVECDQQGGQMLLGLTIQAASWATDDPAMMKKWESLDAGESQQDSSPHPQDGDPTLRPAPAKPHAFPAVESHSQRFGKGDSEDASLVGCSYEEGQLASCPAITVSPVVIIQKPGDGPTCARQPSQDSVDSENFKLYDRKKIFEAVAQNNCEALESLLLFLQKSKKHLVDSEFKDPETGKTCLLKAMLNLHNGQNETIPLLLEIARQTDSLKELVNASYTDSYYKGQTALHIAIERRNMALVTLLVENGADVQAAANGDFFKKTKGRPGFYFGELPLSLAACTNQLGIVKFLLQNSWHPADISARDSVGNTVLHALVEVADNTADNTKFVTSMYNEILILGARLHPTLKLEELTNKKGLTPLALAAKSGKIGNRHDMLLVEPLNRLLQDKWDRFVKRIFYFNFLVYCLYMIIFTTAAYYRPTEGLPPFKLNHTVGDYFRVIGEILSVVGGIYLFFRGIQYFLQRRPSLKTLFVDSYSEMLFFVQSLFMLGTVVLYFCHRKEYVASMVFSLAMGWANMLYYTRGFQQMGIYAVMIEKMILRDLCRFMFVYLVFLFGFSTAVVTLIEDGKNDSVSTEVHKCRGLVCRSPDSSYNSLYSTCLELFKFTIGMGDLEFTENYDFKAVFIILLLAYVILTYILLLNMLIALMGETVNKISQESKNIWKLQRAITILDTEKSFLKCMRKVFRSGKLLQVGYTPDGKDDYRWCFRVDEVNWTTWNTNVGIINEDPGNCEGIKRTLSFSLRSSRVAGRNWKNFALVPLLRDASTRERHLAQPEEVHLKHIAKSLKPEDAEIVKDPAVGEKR

## C=C(C)[C@]12C[C@@H](C)[C@@]34O[C@](Cc5ccccc5)(O[C@@H]1[C@@H]3C=C(COC(=O)Cc1ccc(O)c(OC)c1)C[C@]1(O)C(=O)C(C)=C[C@@H]41)O2 [[^3 H]RTX, [^3 H]resiniferatoxin]
[1]
  % specific binding: 90%
  Kd: 0.1 nM
[2]
  specific binding: Specific binding is observed
[3]
  binding in DRG from chickens: not detected
CD-1 mice
  biological activity: induction of hypothermia: confirmed
Sprague-Dawley rats
  biological activity: induction of ear edema: confirmed
